Earlier results, collected in patent US10195128B2, “Oral care compositions” (Colgate-Palmolive Company, priority 2016, dated 2019).

Settings: oral or intraperitoneal administration; after consumption

COc1cc(CCC(C)=O)ccc1O [zingerone, 4-(3-methoxy-4-hydroxyphenyl)-butan-2-one]
Time to excretion of glucuronide compounds and sulphate conjugates in urine: ≤ 24 h
